From patent US20200289430A1, “Antibacterial Treatments Using Cannabinoids” (priority 2017, published 2020)
≈ marks a conversion by molar mass, not a printed value. Structures can show the parent of a compound that is named as a salt. Where two headings read alike, the source gives them in different places.

Experiments:
Format in all cases: cell-based
Propionibacterium acnes = assay: Minimum Inhibitory Concentration (MIC), Macrodilution Broth Method, Propionibacterium acnes ATCC strains; conditions: Cutibacterium acnes
Source text: (§1) This study, a Minimum Inhibitory Concentration (MIC), will be performed based upon the Macrodilution Broth Method outlined in CLSJ Document M07-A 10, Methods for Dilution Antimicrobial Susceptibility Tests for Bacteria that Gro111 Aerobically, Tenth Edition, and CLSI Document MI I-A8, Methods for Antimicrobial Susceptibility Testing of Anaerobic Bacteria, Eighth Edition.
(§2) The Test Material will be evaluated versus at total of 17 different microorganism strains: 7 strains of Methicillin resistant Staphylococcus aureus, 6 stains of Propionibacterium acnes, 2 strains of Erythromycin resistant Propionibacterium acnes, and 2 strains of Tetracycline resistant Propionibacterium acnes. Positive Control Material #1 will be evaluated versus 2 strains of Erythromycin resistant Propionibacterium acnes. Positive Control Material #2 will be evaluated versus 2 strains of Tetracycline resistant Propionibacterium acnes.
(§3) A suspension of each challenge strain will be prepared and exposed to each of 10 doubling dilutions of the test material or positive control materials prepared in the appropriate nutrient broth (reference Table I). Following incubation, the Minimum Inhibitory Concentration (MIC) of the test material and positive control materials will be determined visually and documented.
(§4) 2 to 6 days prior to testing, sterile tubes containing Reinforced Clostridial Medium (RCM) will be inoculated from lyophilized vials or cryogenic stock cultures containing these species. The broth cultures will be incubated anaerobically at 35±2° C. for 1 to 3 days, or until sufficient growth is observed.
(§5) The purity of each broth culture will be verified by preparing duplicate isolation streaks on Chocolate Agar with Enrichment (CAE), and incubating one plate aerobically and one anaerobically at 35±2° C.
(§6) Following incubation, initial suspensions containing approximately 10^8 CFU/mL will be prepared for each species by centrifuging the broth culture tubes, combining the resulting pellets, and resuspending them in additional broth.
(§7) Final Challenge Suspensions containing approximately 1×10^6 CFU/mL of each microorganism strain will be prepared by transferring aliquots of the 10^8 CFU/mL initial suspensions into separate containers containing a volume of the appropriate broth media sufficient to the needs of testing.
(§8) On each day of testing, the Test Material will be diluted (v/v) using the appropriate broth media to produce an intermediate solution containing […] of Cannabidiol.
(§9) A series of 1:2 (v/v) dilutions of intermediate Test Material solution will be prepared using the appropriate broth media, to produce active concentrations of 100 μg/mL, 50 μg/mL, 25 μg/mL, 12.5 μg/mL, 6.25 μg/mL, 3.125 μg/mL, 1.562 μg/mL, 0.781 μg/mL, 0.390 μg/mL, and 0.195 μg/mL.
(§10) A 1.0 mL aliquot of the intermediate Test Material solution (100 μg/mL), and 1.0 mL aliquots of each of the 9 test material dilutions prepared will be transferred to separate sterile test tubes. For each challenge microorganism, three sets of test tubes will be prepared for the Test Material.
(§11) A 1.0 mL aliquot of a challenge suspension containing approximately 1×10^6 CFU/mL will be dispensed into each dilution tube in each series.
(§12) Following inoculation, final active Test Material concentrations of 50 μg/mL, 25 μg/mL, 12.5 μg/mL, 6.25 μg/mL, 3.125 ug/ml, 1.562 μg/mL, 0.781 μg/mL, 0.390 ug/ml, 0.195 μg/mL and 0.0976 μg/mL will be produced.
(§13) Each dilution tube will contain approximately 5×10^5 CFU/mL of the challenge microorganism.
Positive Control Tubes (Growth Controls) containing a 1.0 mL aliquot of the appropriate broth media, and a 1.0 mL aliquot of challenge suspension will be prepared using each microorganism strain.
Negative Control Tubes (Sterility Controls; no microbial inoculation) of each broth media will be prepared.
Following incubation, the tubes will be examined for growth of the challenge microorganism, as determined visually on the basis of turbidity.

[1] = tested on: Propionibacterium acnes Erythromycin Resistant Clinical Isolates; assay: MIC, Macrodilution Broth Method, Erythromycin resistant P. acnes clinical isolates; conditions: for MIC: Cutibacterium acnes, read-out: Minimum Inhibitory Concentration (MIC); for Minimum Inhibitory Concentration (MIC): Erythromycin resistant P. acnes clinical isolate BSLI #281014Pa6
Source text: as §1, §2, §3, §4, §5, §6, §7, §8
(§14) A series of 1:2 (v/v) dilutions of intermediate Test Material solution will be prepared using the appropriate broth media, to produce active concentrations of 100 μg/mL, 50 μg/mL, 25 μg/mL, 12.5 μg/mL, 6.25 μg/mL, 3.125 μg/mL, 1.562 μg/mL, 0.781 μg/mL, 0.390 μg/mL, and 0.195 μg/mL. […]

[2] = tested on: Propionibacterium acnes Tetracycline Resistant Clinical Isolates; assay: microbe, parasite or virus in culture; conditions: Cutibacterium acnes
Source text: as §1, §2, §3, §4, §5, §6, §7, §8, §14

[3] = tested on: Methicillin resistant Staphylococcus aureus; assay: microbe, parasite or virus in culture
Source text: as §1, §2, §3
2 to 4 days prior to testing, inocula from lyophilized vials or cryogenic stock cultures containing each species will be suspended in 0.9% Sodium Chloride Irrigation, USP (SCI), inoculated onto the surface of Tryptic Soy Agar (TSA) contained in Petri plates, and incubated at 35±2° C. for 24 to 48 hours, or until sufficient growth is observed.
24 to 48 hours prior to testing, growth from the agar plates previously prepared will be suspended in SCI.
The purity of each suspension will be verified by preparing isolation streaks of each culture on TSA. Aliquots of each suspension will then be spread-plated onto the surface of additional plates of TSA and incubated at 35±2° C. until sufficient growth is observed. This will produce lawns of the bacteria on the surface of the agar plates, and growth from these will be used to prepare the challenge suspensions.
Immediately prior to testing, an initial suspension of each species will be prepared in SCI by suspending the microorganisms from the solid media to achieve initial suspension concentrations of approximately 10^8 CFU/mL. The suspensions may be centrifuged, if deemed necessary, to achieve the desired concentration.
as §7, §8, §9, §10, §11, §12, §13

[4] = read-out: Minimum Inhibitory Concentration (MIC), Tetracycline resistant P. acnes clinical isolate BSLI #281014Pa2
[5] = read-out: Minimum Inhibitory Concentration (MIC), Tetracycline resistant P. acnes clinical isolate BSLI #281014Pa4

Structure (SMILES)	MIC (Propionibacterium acnes; ATCC6919, Propionibacterium acnes ATCC #6919, anaerobic, RCM broth, read-out: Minimum Inhibitory Concentration (MIC)) [µg/mL]	MIC (Propionibacterium acnes; ATCC6922, Propionibacterium acnes ATCC #6922, anaerobic, RCM broth, read-out: Minimum Inhibitory Concentration (MIC)) [µg/mL]	MIC (Propionibacterium acnes; ATCC6923, Propionibacterium acnes ATCC #6923, anaerobic, RCM broth, read-out: Minimum Inhibitory Concentration (MIC)) [µg/mL]	MIC (Propionibacterium acnes; ATCC11827, Propionibacterium acnes ATCC #11827, anaerobic, RCM broth, read-out: Minimum Inhibitory Concentration (MIC)) [µg/mL]	MIC (Propionibacterium acnes; ATCC11828, Propionibacterium acnes ATCC #11828, anaerobic, RCM broth, read-out: Minimum Inhibitory Concentration (MIC)) [µg/mL]	MIC (Propionibacterium acnes; ATCC51277, Propionibacterium acnes ATCC #51277, anaerobic, RCM broth, read-out: Minimum Inhibitory Concentration (MIC)) [µg/mL]	MIC (Propionibacterium acnes; all P. acnes strains tested, including strains resistant to other antibiotics, read-out: MIC against Propionibacterium acnes (summary over all strains)) [µg/mL]	MIC [1] [µg/mL]	Minimum Inhibitory Concentration (MIC) [1] [µg/mL]	MIC [2, 4] [µg/mL]	MIC [2, 5] [µg/mL]	MIC ([3]; ATCC33592, read-out: Minimum Inhibitory Concentration (MIC)) [µg/mL]	MIC ([3]; ATCCBAA41, read-out: Minimum Inhibitory Concentration (MIC)) [µg/mL]	MIC ([3]; ATCCBAA42, read-out: Minimum Inhibitory Concentration (MIC)) [µg/mL]	MIC ([3]; ATCCBAA44, read-out: Minimum Inhibitory Concentration (MIC)) [µg/mL]	MIC ([3]; ATCCBAA1683, read-out: Minimum Inhibitory Concentration (MIC)) [µg/mL]	MIC ([3]; ATCCBAA2094, read-out: Minimum Inhibitory Concentration (MIC)) [µg/mL]	MIC ([3]; ATCCBAA2313, read-out: Minimum Inhibitory Concentration (MIC)) [µg/mL]	MIC ([3]; read-out: MIC against Staphylococcus aureus (summary over all strains)) [µg/mL]
C=C(C)[C@@H]1CCC(C)=C[C@H]1c1c(O)cc(CCCCC)cc1O [Cannabidiol]	3.12 (≈ 9.94 µM)	6.25 (≈ 19.9 µM)	6.25 (≈ 19.9 µM)	3.12 (≈ 9.94 µM)	6.25 (≈ 19.9 µM)	6.25 (≈ 19.9 µM)	3.12 to 6.25 (≈ 9.94 to 19.9 µM)	6.25 (≈ 19.9 µM)	6.25	3.12 (≈ 9.94 µM)	6.25 (≈ 19.9 µM)	1.56 (≈ 4.97 µM)	1.56 (≈ 4.97 µM)	1.56 (≈ 4.97 µM)	1.56 (≈ 4.97 µM)	1.56 (≈ 4.97 µM)	1.56 (≈ 4.97 µM)	1.56 (≈ 4.97 µM)	~1.56 (≈ 4.97 µM)
CC[C@H]1OC(=O)[C@H](C)[C@@H](O[C@H]2C[C@@](C)(OC)[C@@H](O)[C@H](C)O2)[C@H](C)[C@@H](O[C@@H]2O[C@H](C)C[C@H](N(C)C)[C@H]2O)[C@](C)(O)C[C@@H](C)C(=O)[C@H](C)[C@@H](O)[C@]1(C)O [Erythromycin, reference compound]	–	–	–	–	–	–	–	2050 (≈ 2790 µM)	2048	–	–	–	–	–	–	–	–	–	–
CN(C)[C@@H]1C(O)=C(C(N)=O)C(=O)[C@@]2(O)C(O)=C3C(=O)c4c(O)cccc4[C@@](C)(O)[C@H]3C[C@@H]12 [Tetracycline HCl, reference compound]	–	–	–	–	–	–	–	–	–	64	128	–	–	–	–	–	–	–	–
